Laboratory results: patent US5840893A, “Compounds for treating infectious diseases” (priority 1996, dated 1998)
Counter-ions that a name gives are not always drawn. Like-named read-outs stand apart in the source and are kept apart here.

Columns and labels:
HIV-1 [1] = experiment: Inhibition of HIV-1 replication in cultured macrophages (Table I); assay type: cell-based; settings: Human immunodeficiency virus 1, Macrophage; 50% inhibition of viral growth, RT or p24, macrophages
Description: A quantitative measurement of the activity of the compounds of the invention to block the replication of HIV-1 in non-dividing cells can be determined by culture of a macrophage-tropic strain of HIV-1 on peripheral blood-derived macrophages. The cells are cultured for 5-6 days prior to infection in a medium consisting of DMEM supplemented with 10% type A/B human serum and 200 U/ml Macrophage Colony Stimulating Factor, with half the medium changed after 3 days, to reach a density of about 10^6 cells per 5 ml well. A macrophage-tropic viral stock may be grown on these cells. The concentration of infectious particles in the stock is estimated by measurement of p24 antigen concentration.
To test the effect of compounds of the invention on HIV- 1 infection in the above-described culture system, the medium is removed and replaced with medium containing HIV-1 at a concentration of 1 ng of p24 (10^4 TCID50 /ml (TCID=tissue culture infectious doses)) and a known concentration of the compound of the invention (the inhibitor). After 24 hours, the cultures are washed to remove non-adherent virus and the culture is re-fed with medium containing the inhibitor at the desired concentration. The amount of replication of HIV-1 is estimated by an assay of the reverse transcriptase activity or by an assay of the concentration of p24 antigen in the culture medium every 2-3 days throughout the post-infection period. In a preferred embodiment the anti-HIV potency of the candidate drug is measured by comparison of the concentration of reverse transcriptase (RT) or of p24 antigen in the medium of the treated and control cultures at the time of the peak of these values in non-treated control cultures, that is about day 5 or 6 post-infection. Repetition at various levels of inhibitor allows for the calculation of the concentration of inhibitor that achieves 50% inhibition of viral growth, IC50. Table I discloses the IC50 of various inhibitors.

HIV-1 [2] = experiment: AZT and Compound No. 2 in combination on HIV-1 infected monocyte cultures (RT activity); assay type: cell-based, HIV-1 in human monocyte cultures; settings: for RT activity: (-) No. 2
Description: Primary human monocytes were obtained from peripheral blood by Ficoll-Hypaque centrifugation and adherence to plastic as described previously. Gartner S. P., et al., 1986, Science 233:215. Briefly, after Ficoll-Hypaque (Pharmacia) separation, PBMCs were washed 4 times with DMEM (the last wash was done at 800 rpm to remove platelets) and resuspended in monocyte culture medium [DMEM supplemented with 1 mM glutamine, 10% heat-inactivated human serum, 1% penicillin+streptomycin mixture (Sigma)] at a density of 6×10^6 cells/ml. Cells were seeded in 24-well plates (1 ml per well) and incubated for 2 h at 37° C., 5% CO2. Following incubation, cells were washed 3 times with DMEM to remove non-adherent cells and incubation was continued in monocyte culture medium supplemented with 250 U/ml human M-CSF (Sigma). Cells were allowed to mature for 7 days prior to infection with the monocyte-tropic strain, HIV-1ADA. Nuovo, G. J., et al., 1992, Diagn. Mol. Pathol. 1:98. Two hours after infection, cells were washed with medium and cultured in RPMI supplemented with 10% human serum. In experiments where PCR analysis was performed, virus was pretreated with RNAse-free DNAse (Boehinger-Mannheim)for 2 h at room temperature and then filtered though a 0.2 μm pore nitrocellulose filter prior to infection.
For the reverse transcriptase (RT) assay, 10 μl of culture supernatant was added to 40 μl of reaction mixture (final composition was 50 mM Tris-HCl, pH 7.8; 20 mM KCl; 5 mM MgCl2; 1 mM DTT; 0.1% Triton X-100; 0.2 OD/ml polyA; 0.2 OD/ml oligo(dT)12-18; and 40 μCi/ml ^3 H-dTTP (76 Ci/mmol, DuPont) and incubated 2 hr at 37° C. 5 μl of the reaction mixture was then spotted onto the DE 81 (Whatman) paper. Paper was air dried and washed 5 times with 5% Na2 HPO4, followed by rinsing with distilled water. After air drying, paper was put on a Flexi Filter plate (Packard), covered with scintillation fluid and counted in a Top Count Microplate Counter (Packard). Results are expressed as counts per minute in 1 ml of supernatant (cpm/ml).
In view of these premises, the effects on HIV-1 replication in human monocyte cultures of the various concentrations of AZT, alone or in combination with 100 nM Compound No. 2, were tested using the protocols of Sections 6.2.1 and 6.2.2. Drugs were added to the monocyte cultures together with HIV-1 at about 10^5 TCID/ml. The concentration of drugs was maintained on refeeding. HIV-1 replication was assessed by assay of the supernatant for reverse transcriptase activity. The results are expressed as mean±std. dev. (cpmx10^-3) in Table V.

HIV-1 [3] = experiment: Viral production in HIV-1-infected cultured monocytes at fixed 100 nM compound (Table II); assay type: cell-based; settings: Human immunodeficiency virus 1, Monocyte, read-out: Viral Production (percentage of untreated control)
Description: Alternatively, the compounds may all be compared for inhibition of HIV replication at a fixed concentration. Presented in Table II are compounds that were used at a concentration of 100 nM to inhibit the production of HIV-1 in cultured monocytes infected with HIV-1 10 days prior to assay (10 ng of p24/10^6 cells) . The production of HIV-1 in each treated culture is reported as percentage of untreated control.

in vivo = settings: mouse, plasma, ip, 50 mg/kg
[4] = system: Plasmodium falciparum clone Dd2; experiment: Antimalarial activity in vitro, hypoxanthine incorporation, clone Dd2; assay type: cell-based; settings: for IC50: Plasmodium falciparum, DD2, read-out: IC50 ± standard deviation
Description: The antimalarial activity of the compounds was determined essentially as described in Desjardins et al. supra. Fifty Al of various concentrations of a compound of the invention, chloroquine, or pyrimethamine were added to the wells of microtiter plates, followed by 200 Al of ring-stage, synchronized, P. falciparum-infected erythrocytes (final hematocrit=1.5%, final parasitemia=1-5%). The plates were incubated for 24 hr in a candle jar kept at 37° C., and then 25 μl of [^3 H]-hypoxanthine (Amersham, Arlington Heights, Ill.; 2.5 μl Ci/well) was added. The plates were then incubated for a further 24 hr, before harvesting onto Unifilter-96 GF/C filter-microplates (Packard; Meriden, Conn.). Twenty-five μl of Microscint scintillation fluid (Packard) was added to each well of the filter-microplate, which was subsequently counted in a Top-count microplate scintillation counter (Packard). The percent of [^3 H] -hypoxanthine uptake relative to control infect-erythrocytes was used to determine the IC50 value for the compounds by non-linear regression for LD50 determination.
The Dd2 clone of P. falciparum, which was both chloroquine and pyrimethamine resistant, was utilized to compare the antimalarial activity of the remaining CNI compounds (Table VIII).

in vitro = in vitro ADME, mouse (ND4 Swiss Webster); settings: for number of metabolites: mouse liver post-mitochondrial supernatant, NADPH
Description: Several female ND4 Swiss Webster mice were euthanized by carbon dioxide inhalation and the livers excised and rinsed with ice cold phosphate buffered saline (pH 7.4). The livers were minced, gently homogenized in 50 mM phosphate buffer (pH 7.4) with a Dounce homogenizer, and centrifuged at 9600×g for 20 min. The post-mitochondrial supernatant was kept, glycerol added to 20%, and frozen at -70° C. in 1.0 ml aliquots until used. For each incubation, 1.0 ml of a 1.0 mg/ml drug solution was added to 3.0 ml of 50 mM phosphate buffer (pH 7.4), 1.0 ml of 2 mg/ml NADPH in 50 mM phosphate (pH 7.4), and 1.0 ml of the post-mitochondrial supernatant. Five hundred μl of each incubate was then immediately transferred to an ice-cold tube to provide the zero-time sample, and addition 500 μl aliquots removed to ice-cold tubes at 8, 15, 30, and 60 min. The samples were then extracted, and analyzed by HPLC as described in section 7.1. Control incubations were also performed where drug or post-mitochondrial supernatant was omitted. […] Peaks in the CNI compound incubations which increased over time, and were not present in control samples lacking the enzyme preparation were treated as putative metabolites.

mice = experiment: Toxicity study: median lethal dose in mice, i.p.; assay type: in vivo
Description: The doses of compounds of the invention found to be lethal to 50% of the mice (LD50) were determined by intraperitoneal injection of groups of five animals with increasing doses of each compound. CNI-0294 was administered from 0, 2, 10, 20, 40, 80, 160, 320, 640, 1280 mg/kg in 0.5 ml of water/HCl; CNI-1594 at 0, 2.4, 5, 10, 20, 40, 80 mg/kg in 0.5 ml of water/HCl; CNI-1794 at 0, 20, 50, 80 mg/kg in 0.5 ml of water/HCl; and CNI-1894 at 0, 10, 20, 40, 80, 240, 480, 960 mg/kg in water/HCl. […] The percentage of animals in each group which died were utilized to calculate the LD50 by non-linear curve fitting with the Enzfit software (Elsevier Bioscience; Cambridge, UK) programmed with the Chou equation (Chou 1976, J Theor Biol 39:253-276)).
The compounds (FIGS. 4A-E), were screened for toxicity via a modified LD50 assay procedure as described above in an outbred strain of mice.

[5] = i.p., 50 mg/kg, water
[6] = 100 nM compound, monocytes infected 10 days prior, 10 ng p24/10^6 cells

CC(=O)c1cccc(Nc2cc(C)[n+](C)c(N)n2)c1 [Compound No. 14, 2-amino-4-(3-acetylphenyl)amino-1,6-dimethylpyrimidinium iodide]
IC50 (HIV-1 [1]): 0.01 µM

Cc1cn([C@H]2C[C@H](N=[N+]=[N-])[C@@H](CO)O2)c(=O)[nH]c1=O [AZT]
inhibition at 10 pM (HIV-1 [2]; Human immunodeficiency virus 1, Monocyte, 264 h, read-out: reduction in RT activity): ~20% | RT activity (HIV-1 [2]; day-7, AZT 10 pM): 0.92 ± 0.21 cpmx10^-3 | RT activity (HIV-1 [2]; day-7, AZT 100 pM): 0.79 ± 0.14 cpmx10^-3 | RT activity (HIV-1 [2]; day-7, AZT 1 nM): 0.60 ± 0.28 cpmx10^-3 | RT activity (HIV-1 [2]; day-7, AZT 10 nM): 0.05 ± 0.02 cpmx10^-3 | RT activity (HIV-1 [2]; day-11, AZT 10 pM): 1.63 ± 0.81 cpmx10^-3 | RT activity (HIV-1 [2]; day-11, AZT 100 pM): 1.34 ± 0.59 cpmx10^-3 | RT activity (HIV-1 [2]; day-11, AZT 1 nM): 1.07 ± 0.49 cpmx10^-3 | RT activity (HIV-1 [2]; day-11, AZT 10 nM): 0.08 ± 0.03 cpmx10^-3

CC(=O)c1cccc(C(C)=O)c1N [2,6-diacetylaniline]
activity at 0.1 µM (HIV-1 [3]; [6]): 28%

CC(=O)c1cncc(C(C)=O)c1 [3,5-diacetylpyridine]
activity at 0.1 µM (HIV-1 [3]; [6]): 58%

CC(=O)c1cc(NC(=N)NC(=N)N)cc(C(C)=O)c1 [Compound No. 12, N-(3,5-diacetylphenyl)biguanide hydrochloride]
activity at 0.1 µM (HIV-1 [3]; [6]): 12%

CC(=O)c1cc(N)cc(C(C)=O)c1 [CNI-1894, 3,5-diacetylaniline]
CL/F (in vivo): 3.3 mL/min | k el (in vivo): 8.33e-06 s⁻¹ | IC50 [4]: > 200 µM | antimalarial activity at the highest concentration tested ([4]; clone Dd2, 200 μM): inactive at the highest concentration tested | number of metabolites (in vitro): one minor and one major metabolite | metabolised at 1 h (in vitro; mouse, liver post-mitochondrial supernatant, 60 min incubation, by peak area, read-out: drug altered (metabolic conversion)): 17.3% | LD50 (median lethal dose) (mice): 258.64 ± 1.37 mg/kg | signs and time of toxic reactions / death (mice): died 2-3 days post injection, and showed no sign of any immediate toxicity | tolerability (mice): reasonably well tolerated | activity at 0.1 µM (HIV-1 [3]; [6]): 20% | A (zero time intercept, distribution phase) [5]: 14.93 µg/mL | B (zero time intercept, elimination phase) [5]: 0.15 µg/mL | VD [5]: 6.60 L | t1/2α [5]: 0.58 h | t1/2β [5]: 23.10 h | α [5]: 1.19 h⁻¹

N=C(N)c1ccc(OCCCCCOc2ccc(C(=N)N)cc2)cc1 [pentamidine, reference compound]
number of metabolites (in vitro): seven

CC(=O)c1ccc(Nc2cc(C)nc(N)n2)cc1 [Compound No. 17, 2-amino-4-(4-acetylphenyl)amino-6-methylpyrimidine]
LD50 (median lethal dose) (mice): 48.93 ± 0.12 mg/kg | LD50 compared with CNI-1594 (mice): identical to that for CNI-1594 | signs and time of toxic reactions / death (mice): suggested a lethal neurotoxicity | activity at 0.1 µM (HIV-1 [3]): 20%

CC(=O)c1cc(Nc2nc(N)nc(N)n2)cc(C(C)=O)c1 [Compound No. 13, 2-(3,5-diacetylphenyl)amino-4,6-diamino-1,3,5-triazine]
activity at 0.1 µM (HIV-1 [3]; [6]): 14%

Cc1cc(Nc2ccccc2)nc(N)n1 [Compound No. 45, 4-phenylamino-2-amino-6-methylpyrimidine]
IC50 [4]: 25.1 ± 0.72 µM
